Data set [1] addresses T1, human CAR (hCAR) (Homo sapiens, UniProt Q14994).
T1 sequence (Q14994 1-352): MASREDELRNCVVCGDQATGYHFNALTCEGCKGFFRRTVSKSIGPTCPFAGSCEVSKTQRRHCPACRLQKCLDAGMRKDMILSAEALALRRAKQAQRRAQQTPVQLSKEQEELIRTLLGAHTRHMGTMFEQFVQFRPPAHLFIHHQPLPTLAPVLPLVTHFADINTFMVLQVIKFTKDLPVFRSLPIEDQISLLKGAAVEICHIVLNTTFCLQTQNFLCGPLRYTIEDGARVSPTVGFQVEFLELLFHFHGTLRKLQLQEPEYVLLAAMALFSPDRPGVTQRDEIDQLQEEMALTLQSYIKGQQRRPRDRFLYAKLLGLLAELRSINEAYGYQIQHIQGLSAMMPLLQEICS
The conditions noted are these: cited from earlier work.

Data set [2] deals with T2, mouse CAR (mCAR) (Mus musculus, UniProt O35627).
T2 sequence (O35627 1-358): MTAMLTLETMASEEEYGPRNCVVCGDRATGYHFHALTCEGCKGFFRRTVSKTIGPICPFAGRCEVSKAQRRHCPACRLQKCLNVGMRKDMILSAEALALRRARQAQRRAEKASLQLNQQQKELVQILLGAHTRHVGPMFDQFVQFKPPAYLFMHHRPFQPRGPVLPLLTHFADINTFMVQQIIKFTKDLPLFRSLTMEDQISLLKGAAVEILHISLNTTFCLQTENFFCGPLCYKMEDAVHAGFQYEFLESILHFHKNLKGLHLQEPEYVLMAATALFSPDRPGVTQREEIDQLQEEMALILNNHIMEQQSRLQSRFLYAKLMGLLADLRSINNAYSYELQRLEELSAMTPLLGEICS
The conditions noted are these: cited from earlier work.

Data set [3] deals with Mixed primary murine intestinal cultures. The conditions noted are these: 3 uM, 2 hours, GLP-1 active ELISA kit, Millipore, cited from earlier work.
Data set [4] deals with T3, human PXR (hPXR) (Homo sapiens, UniProt O75469).
T3 sequence (O75469 1-434): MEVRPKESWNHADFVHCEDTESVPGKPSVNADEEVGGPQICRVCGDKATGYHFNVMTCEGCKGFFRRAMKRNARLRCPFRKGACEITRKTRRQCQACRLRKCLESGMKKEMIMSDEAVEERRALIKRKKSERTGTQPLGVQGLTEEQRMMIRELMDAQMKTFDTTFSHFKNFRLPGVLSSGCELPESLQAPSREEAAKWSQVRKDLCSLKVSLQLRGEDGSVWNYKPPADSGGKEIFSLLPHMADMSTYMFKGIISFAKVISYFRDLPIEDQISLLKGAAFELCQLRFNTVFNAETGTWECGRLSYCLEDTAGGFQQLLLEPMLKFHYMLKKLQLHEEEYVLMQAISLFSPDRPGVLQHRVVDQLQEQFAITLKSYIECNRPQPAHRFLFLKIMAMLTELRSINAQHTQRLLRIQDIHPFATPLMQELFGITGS
The conditions noted are these: cited from earlier work.

Data set [5] deals with T4, mouse PXR (mPXR) (Mus musculus, UniProt O54915).
T4 sequence (O54915 1-431): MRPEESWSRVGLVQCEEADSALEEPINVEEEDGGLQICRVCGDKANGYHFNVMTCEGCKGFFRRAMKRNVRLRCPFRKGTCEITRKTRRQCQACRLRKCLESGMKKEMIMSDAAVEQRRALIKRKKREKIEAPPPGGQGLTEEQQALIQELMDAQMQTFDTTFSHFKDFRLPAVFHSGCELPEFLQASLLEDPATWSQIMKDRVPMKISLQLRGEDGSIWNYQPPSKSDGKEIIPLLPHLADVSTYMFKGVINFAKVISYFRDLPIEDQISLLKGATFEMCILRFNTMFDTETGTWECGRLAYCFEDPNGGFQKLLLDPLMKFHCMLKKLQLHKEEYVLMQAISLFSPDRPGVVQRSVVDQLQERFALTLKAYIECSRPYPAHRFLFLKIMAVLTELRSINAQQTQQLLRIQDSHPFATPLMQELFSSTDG
The conditions noted are these: cited from earlier work.

Data set [6] has as its system CYP3A4.
Data set [7] has as its system CYP3A4. The source holds these as a separate data set.
Data set [8] relates to Colon Intestine-Chip. Briefly: Barrier disruption/rescue assay in organoid-derived Colon Intestine-Chip (apparent permeability, 3 kDa dextran). The format is cell-based, human. On the procedure:
As one example, to evaluate the integrity of the intestinal barrier 3 kDa Cascade Blue dextran (Sigma, D7132) was added to the epithelial compartment of the Duodenum-Chip at 0.1 mg/ml on the day of connecting a microfluidic device to flow, e.g., see exemplary timelines. Effluents of the endothelial compartment were sampled 3 hours after the addition of a dye, up to 24 hours, up to 48 hours, up to 72 hours, or at 48 hour intervals until the end of the assay, in order to determine the concentration of dye that has diffused through the membrane.
The apparent paracellular permeability (Papp) was calculated based on a standard curve and using the following formula: […]
In some embodiments, a microfluidic device as described herein, is used for an in vitro assay for evaluating a substance for its ability or efficacy of ‘rescuing’ barrier function. In some embodiments, a human intestine chip is used for an in vitro assay for evaluating a substance for ‘rescuing’ barrier function. In some embodiments, a human intestine chip is an organoids-derived colonic intestine chip. In some embodiments, Organoids-derived Colonic Epithelial Cells are seeded into one channel with Intestinal Microvascular Endothelial Cells seeded into an opposing channel separated by a membrane, as described herein. After seeding cells on Day 0, flow was initiated on Day 1 with stretch initiated on Day 2.
The following is an exemplary timeline for one embodiment of a Barrier Disruption/Rescue Assay, e.g. rescuing 3 hours of injury by a peptide substance, e.g. AT1002 (synthetic peptide H-FCIGRL-OH of ZO toxin) with AT1001, larzaride acetate. Day −5: experiment preparation (prep), as described herein; Day 0: Intestine chip seeding both cells types, epithelial and endothelial; Day 1 starting flow; Day 2 starting stretch, in some embodiments starting […] at lower levels then increasing up to 10% over 24 hours (1 day), over 2 days, or over 3 days; Day 5; starting Injury/Rescue Assay: using a known reversible injury inducing substance: Injure period starting at 0 hour continuing up to 3 hours, or more. Day 6 first readout time point (24 hours); Day 7, in some embodiments, Fix cells at 48 hours post injury; Days 7-21, in some embodiments, initiate at least one Endpoint Assay for analysis; and in some embodiments Day 21 is a report-out of assay. Exemplary check timepoints for readouts: 0, 24 and 48 hours after initiation of injury inducing substance. In some embodiments, Endpoint Assays and Analysis are done on Day 14. In some embodiments, Endpoint Assays and Analysis are done on Day 21. In some embodiments, a test substance for ‘rescuing’ damage may be evaluated within 14 days. In some embodiments, a test substance for ‘rescuing’ damage may be evaluated within 21 days from the beginning of cell culturing. […]

Data set [9] concerns Caco-2 cell monolayers. The conditions noted are these: cited from earlier work.
For data set [10], the system named is Colon-Chip. Description: IL-13 mediated enrichment of tuft cells in Colon-Chip. The format is cell-based, human. The conditions noted are these: 10 ng/ml. On the procedure:
Stimulation: Exposure of Colon-Chips and ileal and colonic organoids (serve as a control) to 10 ng/ml of IL-13.
Read-outs: mRNA expression of genes specific for Tuft cells: Trpm5, ChAT, Dclkl and for goblet cells: Muc2, TFF3, etc., (to assess concomitant expansion of goblet cell populations) at day 2, 3 and 6 post-treatment corresponding to day 4, 5 and 8 of Colon-Chip culture.
IL-13 treatment has no negative impact of Colon-Chip tissue morphology and barrier function.
Summary of IL-13 mediated enrichment of the tuft cells in Colon-Chip. […] We performed stimulation of Colon-Chips with IL-13 in order to drive tuft cell differentiation and enrich for the presence of these cells in Intestine-Chip platform. […] In some embodiments, Gene expression levels of Tuft cell (Trpm5, ChAT) and goblet cell (Muc2, TFF3) specific markers are evaluated.

Where two headings read alike, the source gives them in different places.

As for `Clc1ccc(-c2nc3sccn3c2C=NOCc2ccc(Cl)c(Cl)c2)cc1` [CITCO, 6-(4-chlorophenyl)imidazo[2,1-b][1,3]thiazole-5-carbaldehyde-O-(3,4-dichlorobenzyl)oxime], the “agonism at human CAR” value in [1] is “strong agonist”. In addition, in data set [2], the “agonism at mouse CAR” value is reported as “not mouse CAR”.
As to `Cc1onc(-c2ccccc2Cl)c1C(=O)N(C)c1ccc(Cl)cc1` [GPBAR-A], in data set [3] (in the presence of 10 mM glucose), the “GLP-1 Concentration (fold increase) in the presence of 10 mM glucose” value is 3.5 fold increase. The “GLP-1 Concentration (fold increase)” value in data set [3] is given as 2.5 fold increase.
As for `CC(=O)[C@H]1[C@H](C#N)C[C@H]2[C@@H]3CC=C4C[C@@H](O)CC[C@]4(C)[C@H]3CC[C@@]21C` [PCN, 5-pregnen-3β-ol-20-one-16α-carbonitrile], the “agonism at human PXR” value in data set [4] is “poor agonist”. Moreover, the “agonism at mouse PXR” value in data set [5] is “potent mPXR agonist”.
On to `CCOP(=O)(OCC)C(=Cc1cc(C(C)(C)C)c(O)c(C(C)(C)C)c1)P(=O)(OCC)OCC` [SR12813], for which the “agonism at mouse PXR” value in [5] is listed as “not for mouse PXR”.
Consider `Clc1cnc(Oc2ccc(Oc3ncc(Cl)cc3Cl)cc2)c(Cl)c1` [TCPOBOP, 1,4-bis-[2-(3,5-dichloropyridyloxy)]benzene,3,3′.5.5′-tetrachloro-1,4-bis(pyridyloxy)benzene], for which the “selectivity mCAR versus hCAR” value in data set [2] is “more selective for mCAR than hCAR”.
As for `C=C1/C(=C\C=C2/CCC[C@]3(C)[C@@H]([C@H](C)CCCC(C)(C)O)CC[C@@H]23)C[C@@H](O)C[C@@H]1O` [VD3, 1,25-dihidroxyvitamin D3], in [6] (Duodenum Intestine-Chip), the “CYP3A4 drug metabolism activity” value is “significantly increased” and the CYP3A4 protein levels result is recorded as “significantly increased”. In addition, in data set [6] (Duodenum-Chip, average of 3 donors, 20 μM RIF or 100 nM VD3, 48 h), the “induction of CYP3A4 expression relative to DMSO-treated controls” value was found to be 4.1 fold. Besides, in data set [7] (Caco-2 Intestine-Chip), the “CYP3A4 induction (in words)” value is “induced” and the “metabolic activity of CYP3A4” value is “no effect”. For the same compound, the “CYP3A4 induction (in words)” value in data set [7] (Caco-2 Intestine-Chip, listed as Vitamin D3) is recorded as “showed induction”. Further, in data set [7] (Caco-2 cells after inducer treatment), the “CYP3A4 protein level (Western Blot)” value is “below the limit of detection”. Also, in [7] (Caco-2 cells, 100 nM, 48 h), the “enhancement of CYP3A4 mRNA level” value stood at 316 fold.
On to H-FCIGRL-OH [AT1002], for which the “injury effect on barrier (apparent permeability, 3 KDa Dextran Cascade Blue)” value in data set [8] (organoid-derived colon chip) is “barrier disruption in a concentration-dependent manner”. Besides, in data set [9] (Caco-2 cell monolayers), the lucifer yellow permeability result is “increase” and the “transepithelial electrical resistance (TEER)” value is “reversible reduction”. Further, in data set [9], the cytotoxicity result is recorded as “no overt cytotoxicity”.
Take IFN-gamma: injury inducing cytokine: the “permeability of Colon Intestine Chip” value in data set [8] (10 ng/ml - 50 ng/ml, 48 hours, 3 KDa Dextran Cascade Blue) was “increases post 48 hours independent of IFN-gamma concentrations tested”.
Take “IL-13: cytokine used to drive tuft cell differentiation”: in data set [10], the “effect on Colon-Chip morphology and barrier function” value is on record as “no negative effect”; the tuft cell population entry was “Enrichment”.
For the compound Larazotide acetate, the “restoration of barrier integrity/function injured by IFN-gamma” value in data set [8] (12.5 mM, IFN-gamma 25 ng/ml, 3 KDa Dextran Texas Red, N=5) was “partially restored/rescued”. Further, the “restore/rescue of barrier integrity” value in data set [8] (Colon Intestine-Chip exposed to AT1002, 20 mM, after 24 hours, N=5) is recorded as “up to 100%”. For the same compound, in data set [9] (apically applied), the “increase in TJ permeability elicited by basolaterally applied cytokines” value is recorded as “inhibited”.

The values are drawn from US20200224136A1, “INTESTINE-CHIP: DIFFERENTIAL GENE EXPRESSION MODEL” (priority 2019, published 2020).
